From PubChem BioAssay (NCI)
Several values for one entry are separate records, joined by “and”; a condition that tells them apart may be missing. Equal entries are not always repeated.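 Grown in 96-well plates, cells were treated for 48 hours with each compound at five concentrations. Insufficient inhibition: endpoint recorded as highest concentration tested. The concentration for 50% growth inhibition is given as GI50. The concentration for full growth arrest is given as TGI.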

Tests used:
Assay in all cases: growth of human tumour cells (NCI), 48 h
[1] = system: SW-620 colon
[2] = system: OVCAR-3 ovarian
[3] = system: K-562 leukemia
[4] = system: HOP-62 NSCLC
[5] = system: EKVX NSCLC
[6] = system: OVCAR-4 ovarian
[7] = system: MCF7 breast
[8] = system: NCI/ADR-RES ovarian
[9] = system: ACHN renal
[10] = system: CCRF-CEM leukemia

Compound	TGI [1]	TGI [2] [µM]	TGI [3] [µM]	TGI [4] [µM]	TGI [5] [µM]	TGI [6] [µM]	TGI [7]	TGI [8]	TGI [9] [µM]	GI50 [1] [µM]	GI50 [10] [µM]	TGI [10] [µM]	GI50 [4]	GI50 [5] [µM]	GI50 [6] [µM]	GI50 [7] [µM]	GI50 [9] [µM]	GI50 [2] [µM]	GI50 [3] [µM]	GI50 [8] [µM]
c1cc(CCN2CCCCC2)ccn1	> 100 µM	> 100	> 100	> 100	> 100	> 100	> 100 µM	> 100 µM	> 100											
Cn1ccc2c(c1=O)C(=O)c1nccc3c1c-2nc1ccccc13	3.17 µM			2.81	3.16	2.6	2.34 µM		2.99	1.28	2.21	> 100	1.45 µM	1.65	1.31	0.871	1.59			
O=c1c2cc(Br)ccc2nc(-c2ccccc2Cl)n1NCC1(O)OCC(O)C(O)C1O (stereo not drawn)	> 100 µM	> 100	> 100	> 100	> 100	> 100			> 100			> 100								
Nc1ccn(CCO)c(=O)n1	> 100 µM	> 100	> 100	> 100	> 100	> 100			> 100			> 100								
COC(C(=O)C(O)C(C)O)C1Cc2cc3cc(OC4CC(OC(C)=O)C(OC5CC(O)C(OC)C(C)O5)C(C)O4)cc(O)c3c(O)c2C(=O)C1OC1CC(OC2CC(OC3CC(C)(O)C(OC(=O)C(C)C)C(C)O3)C(O)C(C)O2)C(O)C(C)O1 (stereo not drawn)	3.98 µM and 2.22 µM						0.327 µM and < 0.215 µM	63.7 µM and > 100 µM	0.198				0.0795 µM and 0.0102 µM and 0.00856 µM	0.0723		0.0465				
C[C@H]1[C@H](C)CC[C@]2(C(=O)N3CCN(C)CC3)CC[C@]3(C)C(=CC[C@@H]4[C@@]5(C)C/C(=C/c6cccnc6)C(=O)C(C)(C)[C@@H]5CC[C@]43C)[C@H]12	2.51 µM	2.36	> 100	3.11	2.99	2.48			2.49	0.924	2	5.64	1.58 µM	1.59	1.07		1.23	0.969	1.67	
CC(/C(=N/NC(=O)C(N)=O)c1c(Cl)ccc(Cl)c1O)C1(O)C(=O)Nc2ccccc21 (stereo not drawn)	> 100 µM	> 100	> 100	> 100	> 100	92.3			> 100			75.8								
C=C(C)C(=O)OC1CC2=CC(CC3(C)OC3C3OC(=O)C(=C)C13)OC2=O (stereo not drawn)	5.03 µM	25.4	9.8	41.9	30.9	29.9	14.7 µM		16.7		1.63	5.59							2.62	
CC(=O)NCCSC(=O)c1ccccc1		0.944		0.525	8.24	> 42.8		0.688 µM	0.0971			0.49								
OCC(O)C(OC1OC(CO)C(O)C(O)C1O)c1nn(-c2ccccc2)c2nc3cc(Cl)c(Cl)cc3cc12 (stereo not drawn)		> 100	> 100	> 100	> 100	> 100			> 100			> 100								
CS(=O)(=O)OCCn1cnc2nc(NC(=O)c3ccccc3)[nH]c(=O)c21	> 100 µM	> 100	> 100	> 100	> 100	> 100			> 100			> 100								
NC(=O)c1cc([N+](=O)[O-])c(Cl)c([N+](=O)[O-])c1	3.99 µM	3.51		17.8	35.7	3.9	4.06 µM	13.9 µM	3.37	1.9			5.49 µM	17.4	1.91	1.97	1.87	1.97		3.67
COCC1N=C(c2cc(OC)c(OC)c(OC)c2-c2cc3c(cc2C2OCCCO2)OCO3)O[C@H]1c1ccccc1 (stereo partly drawn)	> 100 µM	> 100	> 100	> 100	> 100	> 100			> 100			> 100								
Cc1cccc(NC(=O)c2cc3cc(N=Nc4ccccc4Cl)ccc3oc2=O)c1	> 100 µM	> 100	> 100	> 100	> 100	> 100			> 100			> 100								
CCCCCCCCC(=O)N(C)C1C2CN3CCC(O2)C13 (stereo not drawn)	> 100 µM	> 100	> 100	> 100	> 100	> 100			> 100			> 100								
O=c1[nH]nc2ccccc2c1Cl	34.2 µM	6.21	24.7	40.7	15.5	23.8			30.8			34.9								
O=c1c2cccc3cccc(c4oc5c6cccc7cccc(c(=O)c5c14)c76)c32	17 µM	17		> 100	23.3				16.3			22.1								

Compound	TGI [1]	TGI [2] [µM]	TGI [3] [µM]	TGI [4] [µM]	TGI [5] [µM]	TGI [6] [µM]	TGI [7]	TGI [8]	TGI [9] [µM]	GI50 [1] [µM]	GI50 [10] [µM]	TGI [10] [µM]	GI50 [4]	GI50 [5] [µM]	GI50 [6] [µM]	GI50 [7] [µM]	GI50 [9] [µM]	GI50 [2] [µM]	GI50 [3] [µM]	GI50 [8] [µM]
N#C/C(=C1\NN=C(N)C(c2ccc(Cl)cc2)=C1O)c1ccc(Cl)cc1	> 100 µM	> 100	> 100	> 100	> 100	> 100			> 100			> 100								
O=C(O)CCSCCCN1C(=O)c2ccccc2C1=O	> 100 µM	> 100	> 100		> 100	> 100			> 100											
Fc1cccc2cc3ccc4cccc5ccc(c12)c3c45	> 100 µM	> 100	> 100	> 100	> 100	> 100			> 100			> 100								
CCCCCCC#Cc1ccccc1C#CCO	38 µM	27.6	> 100	48.3	50.6	81.6	> 100 µM	34.4 µM	39	20.1			22.4 µM	21.9	24.5	32.8	18.5	14.5	28.8	18.7
O=C(/C=C/c1ccc(Cl)c(Cl)c1)c1ccc(F)cc1	4.08 µM	38.1	18.7	> 100	55.3	51.1			31.6			20.5								
COC(=O)C1C2C=CC(C2)C1(C(=O)OC)S(=O)CC12CCC(CC1O)C2(C)C (stereo not drawn)	37.6 µM	> 100	> 100	> 100	> 100	> 100			> 100			> 100								
CN(C)CCNC(=O)c1ccc(C(=O)NCCN(C)C)c2nc3ccccc3cc12	9.56 µM	9.91	> 30	4.45	6.89	3.52			8.58			10.2								
COc1ccc(C2=NN(C(=O)COc3ccc(Cl)cc3)C(O)(c3ccc(Cl)cc3)C2)cc1 (stereo not drawn)	> 100 µM	> 100	> 100	> 100		> 100			> 100											
Nc1c(Br)c(=O)[nH]c(=O)n1COCCO	> 100 µM	> 100	> 100	> 100		> 100			> 100			> 100								
O=C1OC(CC(=O)c2ccc(Cl)cc2Cl)C(Cl)=C1Cl (stereo not drawn)	38.1 µM	> 100	> 76.7	> 100	> 76.9	> 58.4			> 56.9			> 72.7								
CC1=C(C(=O)Nc2cccc(Cl)c2)C(c2ccc([N+](=O)[O-])cc2)C(C(=O)Nc2cccc(Cl)c2)=C(C)N1		85.3	> 100	> 100	> 100	> 100			97.9			> 100								
Cc1ccc(S(=O)(=O)NNC(=O)c2sc(-c3nc(C)c(C(=O)NNS(=O)(=O)c4ccc(C)cc4)s3)nc2C)cc1	> 100 µM	> 100	> 100	> 100	> 100				> 100			> 100								
CC1CC(c2cccc3c2OCO3)=Nc2ccccc2S1 (stereo not drawn)	> 100 µM	> 100	> 100		> 100	> 100			> 100			> 100								
COc1ccc(C(Cc2cc(OC)c(OC)c(OC)c2)C(=O)O)cc1 (stereo not drawn)	> 100 µM	84.7	> 100	> 100	> 100	> 100			> 100			> 100								
Cc1cc(C)c2c(c1)Nc1ccccc1P2c1ccccc1 (stereo not drawn)	> 100 µM	61	> 100	66.8	91.1	> 100														
CCN1CCN(CC(=O)Nc2nc3ccc(NCc4ccc(Cl)cc4)cc3s2)CC1	4.78 µM	16.8	4.14		> 100	90.6		> 100 µM	5.02	2.1	2.43	8.22		3.29	5.25		2.22	3.16	1.63	2.88
